In patent US11986471B2, “Compounds and methods of use” (Tango Therapeutics, Inc., priority 2018, dated 2024):

Columns and labels:
HAP1 MTAP-deleted = assay: SDMA in-cell western assay, HAP1 MTAP-deleted cell line; format: cell-based; conditions: for IC50: Homo sapiens, HAP1 MTAP-deleted cell line; for MTAP Intact/Deleted Ratio: IC50 ratio HAP1 MTAP-intact / HAP1 MTAP-deleted
Description: (§1) Table 1a also indicates IC50 values in an MTAP-isogenic cell line pair for exemplary compounds in an SDMA in-cell western assay (columns 7-8). HAP1 MTAP-intact is a cell line in which endogenous levels of MTAP are expressed, and HAP1 MTAP-deleted is an MTAP-null cell line.

PRMT5 [1] = molecular target: T1, PRMT5 (Homo sapiens, UniProt O14744); assay: PRMT5 IC50 assay in the presence of MTA as cofactor; format: biochemical; conditions: for IC50: PRMT5, MTA as cofactor; for SAM/MTA Ratio: ratio between Ki in the presence of SAM and Ki in the presence of MTA
T1 construct: purchased Viva (custom protein)
T1 sequence (O14744 whole entry): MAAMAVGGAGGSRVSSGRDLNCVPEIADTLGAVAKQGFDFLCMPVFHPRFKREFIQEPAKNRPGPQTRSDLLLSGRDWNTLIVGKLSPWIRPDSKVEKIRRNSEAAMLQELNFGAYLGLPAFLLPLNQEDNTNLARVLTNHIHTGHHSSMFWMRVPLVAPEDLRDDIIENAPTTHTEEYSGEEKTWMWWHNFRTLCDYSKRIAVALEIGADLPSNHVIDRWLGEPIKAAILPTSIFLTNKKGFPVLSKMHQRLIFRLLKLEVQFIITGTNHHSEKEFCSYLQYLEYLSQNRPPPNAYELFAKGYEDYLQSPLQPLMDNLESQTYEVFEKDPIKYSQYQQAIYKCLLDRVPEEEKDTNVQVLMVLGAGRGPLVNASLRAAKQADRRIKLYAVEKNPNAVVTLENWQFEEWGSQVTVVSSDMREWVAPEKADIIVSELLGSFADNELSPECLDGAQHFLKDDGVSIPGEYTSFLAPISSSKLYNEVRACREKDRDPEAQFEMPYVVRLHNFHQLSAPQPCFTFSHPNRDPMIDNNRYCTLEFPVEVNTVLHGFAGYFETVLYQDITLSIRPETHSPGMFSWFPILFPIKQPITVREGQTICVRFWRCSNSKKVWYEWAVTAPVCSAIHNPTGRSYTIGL
T1 sequence (Q9BQA1 whole entry partner): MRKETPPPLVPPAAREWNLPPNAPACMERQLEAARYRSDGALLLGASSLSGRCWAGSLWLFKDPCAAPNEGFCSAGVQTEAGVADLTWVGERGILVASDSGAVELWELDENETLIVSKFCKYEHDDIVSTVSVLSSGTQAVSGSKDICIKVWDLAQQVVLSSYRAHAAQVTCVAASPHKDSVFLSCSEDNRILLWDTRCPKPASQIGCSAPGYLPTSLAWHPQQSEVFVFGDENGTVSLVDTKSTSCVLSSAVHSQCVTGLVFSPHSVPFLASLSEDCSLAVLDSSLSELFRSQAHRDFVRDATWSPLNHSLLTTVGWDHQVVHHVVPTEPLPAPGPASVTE
Outline: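 IC50 values were measured against human PRMT5 with SAM, with MTA, or with no cofactor. Ki was derived from IC50 as Ki=IC50/1.5 with SAM and Ki=IC50/13.5 with MTA, and the Ki(SAM)/Ki(MTA) ratio was then taken.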

PRMT5 [2] = molecular target: T1, PRMT5; assay: PRMT5 IC50 assay with no cofactor; format: biochemical; conditions: read-out: No Co-factor IC50
Outline: (§2)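 Cofactor-free, SAM and MTA formats; IC50 μM; Ki = IC50/1.5 for SAM, IC50/13.5 for MTA.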

PRMT5 [3] = molecular target: T1, PRMT5; assay: PRMT5 IC50 assay in the presence of SAM as cofactor; format: biochemical
Outline: as §2

HAP1 MTAP-intact = assay: SDMA in-cell western assay, HAP1 MTAP-intact cell line; format: cell-based; conditions: Homo sapiens
Description: as §1, with “line. […] Compounds with a ratio in the SDMA in-cell western assay of equal to or greater than 3 fold are considered MTAP-selective.” for “line.”

Row | SMILES | IC50 (PRMT5 [1]) | IC50 (PRMT5 [2]) | IC50 (PRMT5 [3]) | IC50 (HAP1 MTAP-intact) | IC50 (HAP1 MTAP-deleted) | MTAP Intact/Deleted Ratio (HAP1 MTAP-deleted) | SAM/MTA Ratio (PRMT5 [1])
1 | CC(=O)N1CC[C@H](Nc2cc(C(=O)NC[C@H](O)CN3CCc4cc(OCc5ocnc5C)ccc4C3)ncn2)C[C@H]1C (mixture of isomers) [Compound 626, 6-{[(2RS,4SR)-1-acetyl-2-methylpiperidin-4-yl]amino}-N-[(2S)-2-hydroxy-3-{6-[(4-methyl-1,3-oxazol-5-yl)methoxy]-1,2,3,4-tetrahydroisoquinolin-2-yl}propyl]pyrimidine-4-carboxamide] | 50 to 500 nM | 500 to 5000 nM | 50 to 500 nM | 1000 to 10000 nM | < 1000 nM | B* (an IC50 ratio greater than or equal to 3 fold but lower than 10 fold between the IC50 in the HAP1 MTAP-intact cell line and the HAP1 MTAP-deleted cell line) | A (a Ki ratio greater than or equal to 10 fold between the Ki in the presence of SAM and the Ki in the presence of MTA)
2 | CC(=O)N1CCC(Nc2cc(C(=O)NC[C@H](O)CN3CCc4cc(OCc5ocnc5C)ccc4C3)cc(N3CCCCC3)c2)CC1 (single isomer, unassigned) [Compound 631] | 50 to 500 nM | ≥ 5000 nM | 50 to 500 nM | 1000 to 10000 nM | < 1000 nM | B* (an IC50 ratio greater than or equal to 3 fold but lower than 10 fold between the IC50 in the HAP1 MTAP-intact cell line and the HAP1 MTAP-deleted cell line) | A (a Ki ratio greater than or equal to 10 fold between the Ki in the presence of SAM and the Ki in the presence of MTA)
3 | Cn1nccc1COc1ccc2c(c1)CCN(C[C@@H](O)CNC(=O)c1ccnc(NC3CCC3)c1)C2 [Compound 14, (S)-2-(cyclobutylamino)-N-(2-hydroxy-3-(6-((1-methyl-1H-pyrazol-5-yl)methoxy)-3,4-dihydroisoquinolin-2(1H)-yl)propyl)isonicotinamide] | – | – | – | 1000 to 10000 nM | ≥ 10000 nM | – | –
4 | O=C(NC[C@H](O)CN1CCc2cc(OCc3cnco3)ccc2C1)c1ccnc(NC2CCC2)c1 [Compound 74, 2-(cyclobutylamino)-N-[(2S)-2-hydroxy-3-[6-(oxazol-5-ylmethoxy)-3,4-dihydro-1H-isoquinolin-2-yl]propyl]pyridine-4-carboxamide] | – | – | – | 1000 to 10000 nM | 1000 to 10000 nM | – | –
5 | Cc1ncoc1COc1ccc2c(c1)CCN(C[C@@H](O)CNC(=O)c1ccnc(NC3CCC3)c1)C2 [Compound 96, (S)-2-(cyclobutylamino)-N-(2-hydroxy-3-(6-((4-methyloxazol-5-yl)methoxy)-3,4-dihydroisoquinolin-2(1H)-yl)propyl)isonicotinamide] | – | – | – | < 1000 nM | < 1000 nM | – | –
6 | CC(=O)N1CCC(Nc2cc(C(=O)NC[C@H](O)CN3CCc4cc(OCc5cnco5)ccc4C3)ncn2)CC1 [Compound 135, 6-[(1-acetyl-4-piperidyl)amino]-N-[(2S)-2-hydroxy-3-[6-(oxazol-5-ylmethoxy)-3,4-dihydro-1H-isoquinolin-2-yl]propyl]pyrimidine-4-carboxamide] | 50 to 500 nM | ≥ 5000 nM | 50 to 500 nM | 1000 to 10000 nM | 1000 to 10000 nM | C* (an IC50 ratio of less than 3 fold between the IC50 in the HAP1 MTAP-intact cell line and the HAP1 MTAP-deleted cell line) | A (a Ki ratio greater than or equal to 10 fold between the Ki in the presence of SAM and the Ki in the presence of MTA)
7 | O=C(NC[C@H](O)CN1CCc2cc(OCc3cn[nH]c3)ccc2C1)c1ccnc(NC2CCC2)c1 [Compound 163, 2-(cyclobutylamino)-N-[(2S)-2-hydroxy-3-[6-(1H-pyrazol-4-ylmethoxy)-3,4-dihydro-1H-isoquinolin-2-yl]propyl]pyridine-4-carboxamide] | – | – | – | < 1000 nM | < 1000 nM | – | –
8 | O=C(NC[C@H](O)CN1CCc2c(ccc(OCc3cnco3)c2Cl)C1)c1ccnc(NC2CCC2)c1F [Compound 326, (S)—N-(3-(5-chloro-6-(oxazol-5-ylmethoxy)-3N-dihydroisoquinolin-2(1H)-yl)-2-hydroxypropyl)-2-(cyclobutylamino)-3-fluoroisonicotinamide] | – | – | – | ≥ 10000 nM | ≥ 10000 nM | – | –
9 | CC(=O)N1CC(Nc2cc(C(=O)NC[C@H](O)CN3CCc4cc(OCc5ocnc5C)c(F)cc4C3)cc(N3CCCCC3)n2)C1 [Compound 638] | 50 to 500 nM | 50 to 500 nM | 50 to 500 nM | 1000 to 10000 nM | – | – | A (a Ki ratio greater than or equal to 10 fold between the Ki in the presence of SAM and the Ki in the presence of MTA)
10 | Cc1ncoc1COc1ccc2c(c1)CCN(C[C@@H](O)CNC(=O)c1cc(NC3CCC3)nc(N3CCCCC3)n1)C2 [Compound 639, (S)-6-(cyclobutylamino)-N-(2-hydroxy-3-(6-((4-methyloxazol-5-yl)methoxy)-3,4-dihydroisoquinolin-2(1H)-yl)propyl)-2-(piperidin-1-yl)pyrimidine-4-carboxamide] | 50 to 500 nM | 500 to 5000 nM | 50 to 500 nM | < 1000 nM | – | – | A (a Ki ratio greater than or equal to 10 fold between the Ki in the presence of SAM and the Ki in the presence of MTA)
11 | Cc1ncoc1COc1ccc2c(c1)CCN(C[C@@H](O)CNC(=O)c1ccnc(NC3CCN(C(=O)C(C)(C)C)CC3)c1)C2 [Compound 640, (S)—N-(2-hydroxy-3-(6-((4-methyloxazol-5-yl)methoxy)-3,4-dihydroisoquinolin-2(1H)-yl)propyl)-2-((1-pivaloylpiperidin-4-yl)amino)isonicotinamide] | 50 to 500 nM | 500 to 5000 nM | 50 to 500 nM | 1000 to 10000 nM | – | – | A (a Ki ratio greater than or equal to 10 fold between the Ki in the presence of SAM and the Ki in the presence of MTA)
12 | CC(=O)N1CCC(Nc2cc(C(=O)NC[C@H](O)CN3CCc4cc(OCc5ocnc5C)ccc4C3)cc(C3CCCCC3)n2)CC1 [Compound 641, (S)-2-((1-acetylpiperidin-4-yl)amino)-6-cyclohexyl-N-(2-hydroxy-3-(6-((4-methyloxazol-5-yl)methoxy)-3,4-dihydroisoquinolin-2(1H)-yl)propyl)isonicotinamide] | < 50 nM | 500 to 5000 nM | 50 to 500 nM | < 1000 nM | – | – | A (a Ki ratio greater than or equal to 10 fold between the Ki in the presence of SAM and the Ki in the presence of MTA)

Continued, in another order:

Row | IC50 (PRMT5 [1]) | IC50 (PRMT5 [2]) | IC50 (PRMT5 [3]) | IC50 (HAP1 MTAP-intact) | SMILES | IC50 (HAP1 MTAP-deleted) | MTAP Intact/Deleted Ratio (HAP1 MTAP-deleted) | SAM/MTA Ratio (PRMT5 [1])
13 | 50 to 500 nM | 500 to 5000 nM | 50 to 500 nM | ≥ 10000 nM | CC(=O)N1CCC(Nc2cc(C(=O)NC[C@H](O)CN3CCc4c(C)c(OCc5ocnc5C)cc(F)c4C3)ccn2)CC1 [Compound 642, 2-[(1-acetyl-4-piperidyl)amino]-N-[(2S)-3-[8-fluoro-5-methyl-6-[(4-methyloxazol-5-yl)methoxy]-3,4-dihydro-1H-isoquinolin-2-yl]-2-hydroxy-propyl]pyridine-4-carboxamide] | – | – | A (a Ki ratio greater than or equal to 10 fold between the Ki in the presence of SAM and the Ki in the presence of MTA)
14 | < 50 nM | 500 to 5000 nM | 50 to 500 nM | – | CC(=O)N1CCC(Nc2cc(C(=O)NC[C@H](O)CN3CCc4cc(OCc5ocnc5C)ccc4C3)cc(C(C)C)n2)CC1 [Compound 646, (S)-2-((1-acetylpiperidin-4-yl)amino)-N-(2-hydroxy-3-(6-((4-methyloxazol-5-yl)methoxy)-3,4-dihydroisoquinolin-2(1H)-yl)propyl)-6-isopropylisonicotinamide] | – | – | A (a Ki ratio greater than or equal to 10 fold between the Ki in the presence of SAM and the Ki in the presence of MTA)
15 | 50 to 500 nM | 500 to 5000 nM | 50 to 500 nM | – | CC(=O)N1CC(Nc2cc(C(=O)NCC(O)CN3CCc4nc(OCc5ocnc5C)ccc4C3)nc(N3CCCCC3)n2)C1 (stereo not shown) [Compound 650] | – | – | A (a Ki ratio greater than or equal to 10 fold between the Ki in the presence of SAM and the Ki in the presence of MTA)
16 | 50 to 500 nM | 500 to 5000 nM | 50 to 500 nM | – | CC(=O)N1CC(Nc2cc(C(=O)NCC(O)CN3CCc4c(C)c(OCc5ocnc5C)cc(F)c4C3)nc(N3CCCCC3)n2)C1 (stereo not shown) [Compound 651] | – | – | A (a Ki ratio greater than or equal to 10 fold between the Ki in the presence of SAM and the Ki in the presence of MTA)
17 | 50 to 500 nM | 500 to 5000 nM | 50 to 500 nM | – | CC(=O)N1CCC(Nc2cc(C(=O)NC[C@@H](O)CN3CCc4c(C)c(OCc5ocnc5C)cc(F)c4C3)cc(N3CCCCC3)n2)CC1 [Compound 652] | – | – | A (a Ki ratio greater than or equal to 10 fold between the Ki in the presence of SAM and the Ki in the presence of MTA)
18 | 500 to 5000 nM | ≥ 5000 nM | 500 to 5000 nM | – | CC(=O)N1CCC(Nc2cc(C(=O)NC[C@H](O)CN3CCc4c(C)c(OCc5ocnc5C)cc(F)c4C3)cc(N3CCCCC3)n2)CC1 [Compound 653] | – | – | A (a Ki ratio greater than or equal to 10 fold between the Ki in the presence of SAM and the Ki in the presence of MTA)
